Data taken from ChEMBL document CHEMBL5649169 (ChemMedChem, 2018).

Assays:
[1] = biological target: Tubulin alpha-1C chain (Homo sapiens) (UniProt Q9BQE3)
[2] = biological target: Serrate RNA effector molecule homolog (Homo sapiens) (UniProt Q9BXP5)
[3] = biological target: Isocitrate dehydrogenase [NAD] subunit alpha, mitochondrial (Homo sapiens) (UniProt P50213)
[4] = biological target: Acidic leucine-rich nuclear phosphoprotein 32 family member A (Homo sapiens) (UniProt P39687)
[5] = biological target: 5'-AMP-activated protein kinase subunit beta-2 (Homo sapiens) (UniProt O43741)
[6] = biological target: Serine/threonine-protein kinase MRCK alpha (Homo sapiens) (UniProt Q5VT25)
[7] = biological target: Serine palmitoyltransferase 1 (Homo sapiens) (UniProt O15269)
[8] = biological target: Serine/threonine-protein kinase N1 (Homo sapiens) (UniProt Q16512)
[9] = biological target: Ephrin type-A receptor 1 (Homo sapiens) (UniProt P21709)
[10] = biological target: Delta(14)-sterol reductase LBR (Homo sapiens) (UniProt Q14739)
[11] = biological target: Heterogeneous nuclear ribonucleoprotein U-like protein 1 (Homo sapiens) (UniProt Q9BUJ2)
Homo sapiens [12] = species: Homo sapiens
[13] = biological target: Guanine nucleotide-binding protein G(i) subunit alpha-2 (Homo sapiens) (UniProt P04899)
[14] = biological target: Signal recognition particle subunit SRP72 (Homo sapiens) (UniProt O76094)
[15] = biological target: Aspartate--tRNA ligase, cytoplasmic (Homo sapiens) (UniProt P14868)
[16] = biological target: Ribosomal protein S6 kinase alpha-4 (Homo sapiens) (UniProt O75676)
[17] = biological target: Rab GDP dissociation inhibitor beta (Homo sapiens) (UniProt P50395)
[18] = biological target: Galactocerebrosidase (Homo sapiens) (UniProt P54803)
[19] = biological target: Ubiquitin-protein ligase E3C (Homo sapiens) (UniProt Q15386)
[20] = biological target: Peroxisomal acyl-coenzyme A oxidase 3 (Homo sapiens) (UniProt O15254)
[21] = biological target: Aromatic-L-amino-acid decarboxylase (Homo sapiens) (UniProt P20711)
[22] = biological target: Fructose-bisphosphate aldolase A (Homo sapiens) (UniProt P04075)
[23] = biological target: Histone deacetylase 1 (Homo sapiens) (UniProt Q13547)
[24] = biological target: cAMP-dependent protein kinase catalytic subunit alpha (Homo sapiens) (UniProt P17612)
[25] = biological target: Dual specificity mitogen-activated protein kinase kinase 6 (Homo sapiens) (UniProt P52564)
[26] = biological target: S-adenosylmethionine synthase isoform type-2 (Homo sapiens) (UniProt P31153)
[27] = biological target: LIM domain kinase 2 (Homo sapiens) (UniProt P53671)
[28] = biological target: Heat shock protein HSP 90-alpha (Homo sapiens) (UniProt P07900)
Homo sapiens [29] = species: Homo sapiens; remark: listed apart in the source
[30] = biological target: TRAF family member-associated NF-kappa-B activator (Homo sapiens) (UniProt Q92844)
[31] = biological target: Annexin A7 (Homo sapiens) (UniProt P20073)
[32] = biological target: Peptidyl-prolyl cis-trans isomerase H (Homo sapiens) (UniProt O43447)
[33] = biological target: Eukaryotic translation initiation factor 3 subunit E (Homo sapiens) (UniProt P60228)
[34] = biological target: Alpha-actinin-4 (Homo sapiens) (UniProt O43707)
[35] = biological target: TELO2-interacting protein 1 homolog (Homo sapiens) (UniProt O43156)
[36] = biological target: TGF-beta receptor type-1 (Homo sapiens) (UniProt P36897)
[37] = biological target: Heat shock protein beta-1 (Homo sapiens) (UniProt P04792)
Homo sapiens [38] = species: Homo sapiens; remark: listed apart in the source
[39] = biological target: Cytochrome c oxidase subunit 2 (Homo sapiens) (UniProt P00403)
[40] = biological target: Proteasome subunit alpha type-5 (Homo sapiens) (UniProt P28066)
[41] = biological target: UV excision repair protein RAD23 homolog B (Homo sapiens) (UniProt P54727)
[42] = biological target: Protein kinase C theta type (Homo sapiens) (UniProt Q04759)
[43] = biological target: Nck-associated protein 1-like (Homo sapiens) (UniProt P55160)
[44] = biological target: Signal recognition particle subunit SRP68 (Homo sapiens) (UniProt Q9UHB9)
[45] = biological target: Non-selective voltage-gated ion channel VDAC1 (Homo sapiens) (UniProt P21796)
[46] = biological target: Large ribosomal subunit protein uL23 (Homo sapiens) (UniProt P62750)
[47] = biological target: Aminoacyl tRNA synthase complex-interacting multifunctional protein 1 (Homo sapiens) (UniProt Q12904)
Also: assay method not described here.

Sequence of Signal recognition particle subunit SRP72 (Homo sapiens) (O76094 whole entry): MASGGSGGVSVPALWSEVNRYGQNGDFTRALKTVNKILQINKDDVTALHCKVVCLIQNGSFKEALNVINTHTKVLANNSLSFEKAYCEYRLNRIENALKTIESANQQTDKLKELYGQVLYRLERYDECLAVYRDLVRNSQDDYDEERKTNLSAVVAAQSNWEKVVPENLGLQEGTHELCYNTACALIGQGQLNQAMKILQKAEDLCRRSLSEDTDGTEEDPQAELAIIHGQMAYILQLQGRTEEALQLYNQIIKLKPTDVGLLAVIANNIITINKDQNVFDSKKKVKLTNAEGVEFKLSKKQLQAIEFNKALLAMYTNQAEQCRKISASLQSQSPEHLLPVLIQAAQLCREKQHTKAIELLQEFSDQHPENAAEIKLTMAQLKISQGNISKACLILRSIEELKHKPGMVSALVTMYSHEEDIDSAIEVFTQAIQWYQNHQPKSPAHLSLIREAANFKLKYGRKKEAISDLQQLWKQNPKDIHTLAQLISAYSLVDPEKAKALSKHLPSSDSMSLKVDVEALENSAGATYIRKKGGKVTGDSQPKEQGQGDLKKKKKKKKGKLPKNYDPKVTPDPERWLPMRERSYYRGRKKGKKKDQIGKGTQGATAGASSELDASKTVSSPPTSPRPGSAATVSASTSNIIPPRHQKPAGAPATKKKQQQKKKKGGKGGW
Sequence of Peroxisomal acyl-coenzyme A oxidase 3 (Homo sapiens) (O15254 whole entry): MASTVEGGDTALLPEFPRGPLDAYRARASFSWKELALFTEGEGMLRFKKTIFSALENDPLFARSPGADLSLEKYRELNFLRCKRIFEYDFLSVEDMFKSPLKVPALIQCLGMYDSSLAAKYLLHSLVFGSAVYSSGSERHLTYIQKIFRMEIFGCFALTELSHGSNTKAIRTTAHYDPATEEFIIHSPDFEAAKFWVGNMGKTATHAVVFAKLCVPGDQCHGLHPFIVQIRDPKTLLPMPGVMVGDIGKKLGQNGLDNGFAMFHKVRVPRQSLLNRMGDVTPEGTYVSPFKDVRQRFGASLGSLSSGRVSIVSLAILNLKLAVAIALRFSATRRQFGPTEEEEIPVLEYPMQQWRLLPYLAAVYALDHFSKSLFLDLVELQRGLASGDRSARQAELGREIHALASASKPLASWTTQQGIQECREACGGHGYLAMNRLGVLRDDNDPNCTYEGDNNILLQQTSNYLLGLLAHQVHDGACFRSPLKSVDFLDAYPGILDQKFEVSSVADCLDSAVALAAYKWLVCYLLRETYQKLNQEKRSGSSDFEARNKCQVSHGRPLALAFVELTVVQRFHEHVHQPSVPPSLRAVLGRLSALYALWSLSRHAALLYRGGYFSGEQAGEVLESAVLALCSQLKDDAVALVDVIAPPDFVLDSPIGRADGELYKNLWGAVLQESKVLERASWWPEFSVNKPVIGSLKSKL
Sequence of Heat shock protein beta-1 (Homo sapiens) (P04792 whole entry): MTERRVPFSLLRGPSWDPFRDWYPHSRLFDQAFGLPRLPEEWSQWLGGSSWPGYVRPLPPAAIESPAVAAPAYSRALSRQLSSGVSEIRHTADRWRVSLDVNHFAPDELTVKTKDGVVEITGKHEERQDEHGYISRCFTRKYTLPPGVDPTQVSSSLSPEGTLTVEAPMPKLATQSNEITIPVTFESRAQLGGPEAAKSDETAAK
Sequence of Heterogeneous nuclear ribonucleoprotein U-like protein 1 (Homo sapiens) (Q9BUJ2 whole entry): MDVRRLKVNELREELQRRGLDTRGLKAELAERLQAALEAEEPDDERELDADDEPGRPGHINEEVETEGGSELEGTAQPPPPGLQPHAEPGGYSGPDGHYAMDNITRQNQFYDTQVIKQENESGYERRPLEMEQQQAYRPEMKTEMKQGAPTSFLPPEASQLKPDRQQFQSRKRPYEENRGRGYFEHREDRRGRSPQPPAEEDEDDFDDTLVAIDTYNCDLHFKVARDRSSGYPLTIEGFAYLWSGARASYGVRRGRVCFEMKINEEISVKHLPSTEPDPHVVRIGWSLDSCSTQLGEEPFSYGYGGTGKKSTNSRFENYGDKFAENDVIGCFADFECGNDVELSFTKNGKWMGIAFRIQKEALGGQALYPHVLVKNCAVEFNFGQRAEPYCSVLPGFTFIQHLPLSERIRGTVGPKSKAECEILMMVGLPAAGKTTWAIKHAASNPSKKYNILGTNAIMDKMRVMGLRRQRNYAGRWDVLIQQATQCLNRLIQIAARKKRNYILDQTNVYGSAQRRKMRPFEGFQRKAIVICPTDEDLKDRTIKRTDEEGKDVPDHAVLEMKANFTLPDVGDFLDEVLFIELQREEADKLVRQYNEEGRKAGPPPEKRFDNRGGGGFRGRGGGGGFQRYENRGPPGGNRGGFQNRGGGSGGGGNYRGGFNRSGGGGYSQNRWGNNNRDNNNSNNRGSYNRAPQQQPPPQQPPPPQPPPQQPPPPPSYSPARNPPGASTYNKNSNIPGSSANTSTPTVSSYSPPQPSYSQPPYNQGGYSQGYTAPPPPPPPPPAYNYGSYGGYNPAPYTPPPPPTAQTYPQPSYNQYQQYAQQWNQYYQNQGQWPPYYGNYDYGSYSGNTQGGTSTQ
Sequence of Tubulin alpha-1C chain (Homo sapiens) (Q9BQE3 whole entry, looked up): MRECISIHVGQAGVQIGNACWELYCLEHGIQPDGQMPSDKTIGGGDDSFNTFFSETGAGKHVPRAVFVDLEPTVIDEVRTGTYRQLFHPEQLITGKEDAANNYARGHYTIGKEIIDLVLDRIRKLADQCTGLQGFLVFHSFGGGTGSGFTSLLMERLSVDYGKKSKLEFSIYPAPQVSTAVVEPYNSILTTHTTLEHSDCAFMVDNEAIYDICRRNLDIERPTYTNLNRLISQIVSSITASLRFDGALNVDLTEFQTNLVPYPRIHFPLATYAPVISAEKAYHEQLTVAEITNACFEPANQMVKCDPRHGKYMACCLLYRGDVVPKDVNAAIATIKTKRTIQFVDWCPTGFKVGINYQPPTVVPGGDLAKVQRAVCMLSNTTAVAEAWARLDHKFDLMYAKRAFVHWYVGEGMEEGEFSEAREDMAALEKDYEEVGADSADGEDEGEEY
Sequence of Dual specificity mitogen-activated protein kinase kinase 6 (Homo sapiens) (P52564 whole entry, canonical isoform): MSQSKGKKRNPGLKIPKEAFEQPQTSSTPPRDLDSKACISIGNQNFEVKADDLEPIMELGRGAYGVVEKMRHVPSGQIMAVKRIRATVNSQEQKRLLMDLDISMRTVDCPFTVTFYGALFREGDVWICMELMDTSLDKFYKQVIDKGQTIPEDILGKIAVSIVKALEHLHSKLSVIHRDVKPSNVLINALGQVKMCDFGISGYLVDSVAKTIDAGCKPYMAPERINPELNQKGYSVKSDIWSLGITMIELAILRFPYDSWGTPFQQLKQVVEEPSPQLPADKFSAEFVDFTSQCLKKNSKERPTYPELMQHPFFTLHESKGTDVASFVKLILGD
Sequence of Aromatic-L-amino-acid decarboxylase (Homo sapiens) (P20711 whole entry): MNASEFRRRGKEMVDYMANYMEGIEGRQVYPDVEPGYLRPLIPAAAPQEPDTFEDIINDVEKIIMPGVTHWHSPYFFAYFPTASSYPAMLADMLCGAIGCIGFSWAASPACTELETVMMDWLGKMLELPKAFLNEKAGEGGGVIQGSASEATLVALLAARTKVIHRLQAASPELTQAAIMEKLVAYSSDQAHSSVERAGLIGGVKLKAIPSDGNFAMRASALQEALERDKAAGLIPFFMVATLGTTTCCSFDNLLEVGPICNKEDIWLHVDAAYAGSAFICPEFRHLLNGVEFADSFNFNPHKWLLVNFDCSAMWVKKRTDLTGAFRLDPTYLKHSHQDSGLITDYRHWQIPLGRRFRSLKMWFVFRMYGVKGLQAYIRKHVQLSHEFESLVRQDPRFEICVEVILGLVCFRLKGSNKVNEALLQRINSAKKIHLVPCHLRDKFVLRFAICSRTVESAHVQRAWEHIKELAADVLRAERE
Sequence of Galactocerebrosidase (Homo sapiens) (P54803 whole entry): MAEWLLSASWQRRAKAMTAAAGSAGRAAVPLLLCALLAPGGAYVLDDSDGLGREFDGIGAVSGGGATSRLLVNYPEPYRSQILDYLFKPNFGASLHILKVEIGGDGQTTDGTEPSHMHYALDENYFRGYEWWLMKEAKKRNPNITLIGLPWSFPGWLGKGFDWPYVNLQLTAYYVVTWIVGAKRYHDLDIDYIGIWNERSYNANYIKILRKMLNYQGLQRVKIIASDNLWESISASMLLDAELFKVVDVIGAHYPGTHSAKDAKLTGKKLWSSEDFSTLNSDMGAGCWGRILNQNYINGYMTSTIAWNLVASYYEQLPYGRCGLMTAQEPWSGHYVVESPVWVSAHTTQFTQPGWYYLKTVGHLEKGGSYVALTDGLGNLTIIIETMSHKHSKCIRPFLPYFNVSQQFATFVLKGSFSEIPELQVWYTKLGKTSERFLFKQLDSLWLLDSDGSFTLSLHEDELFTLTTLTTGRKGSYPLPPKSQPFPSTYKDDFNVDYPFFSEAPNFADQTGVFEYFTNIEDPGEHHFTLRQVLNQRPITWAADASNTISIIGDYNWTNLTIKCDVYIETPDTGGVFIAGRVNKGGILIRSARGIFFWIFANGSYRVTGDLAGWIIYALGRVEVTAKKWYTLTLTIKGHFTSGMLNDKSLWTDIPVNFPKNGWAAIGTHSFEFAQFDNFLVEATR
Sequence of Rab GDP dissociation inhibitor beta (Homo sapiens) (P50395 whole entry): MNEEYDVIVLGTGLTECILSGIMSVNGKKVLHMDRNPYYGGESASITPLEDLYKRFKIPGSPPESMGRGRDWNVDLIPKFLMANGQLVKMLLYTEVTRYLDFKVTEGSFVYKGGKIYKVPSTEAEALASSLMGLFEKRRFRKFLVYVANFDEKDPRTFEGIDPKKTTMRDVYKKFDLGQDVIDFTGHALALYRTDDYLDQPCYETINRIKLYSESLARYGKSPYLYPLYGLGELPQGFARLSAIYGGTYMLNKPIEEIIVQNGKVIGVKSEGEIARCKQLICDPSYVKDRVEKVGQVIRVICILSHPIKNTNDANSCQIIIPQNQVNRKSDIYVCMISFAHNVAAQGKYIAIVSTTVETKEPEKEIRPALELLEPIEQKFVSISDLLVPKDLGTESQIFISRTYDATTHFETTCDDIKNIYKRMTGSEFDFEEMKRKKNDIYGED

Cc1ccc(C(=O)Nc2cccc(C(F)(F)F)c2)cc1Nc1nc(-c2cccnc2)nc2nn(C)cc12
ED50 [1]: 9.37 µM
ED50 [2]: 1.29 µM
ED50 [3]: 0.0344 µM
ED50 [4]: 12.4 µM
ED50 [5]: 0.0168 µM
ED50 [6]: 0.0291 µM
ED50 [7]: 0.107 µM
ED50 [8]: 0.245 µM
ED50 [9]: 4.58 µM
ED50 [10]: 0.0816 µM
ED50 [11]: 2.56 µM
ED50 (Homo sapiens [12]): 17.5 µM
ED50 [13]: 0.13 µM
ED50 [14]: 0.614 µM
ED50 [15]: 6.72 µM
ED50 [16]: 0.154 µM
ED50 [17]: 0.514 µM
ED50 [18]: 8.73 µM
ED50 [19]: 0.0836 µM
ED50 [20]: 7.13 µM
ED50 [21]: 1.52 µM
ED50 [22]: 0.0716 µM
ED50 [23]: 1.17 µM
ED50 [24]: 0.0643 µM
ED50 [25]: 1.71 µM
ED50 [26]: 0.0257 µM
ED50 [27]: 1.38 µM
ED50 [28]: 33.1 µM
ED50 (Homo sapiens [29]): 21400 µM
ED50 [30]: 0.0508 µM
ED50 [31]: 0.0697 µM
ED50 [32]: 0.0325 µM
ED50 [33]: 0.512 µM
ED50 [34]: 0.12 µM
ED50 [35]: 0.00118 µM
ED50 [36]: 0.029 µM
ED50 [37]: 0.0109 µM
ED50 (Homo sapiens [38]): 0.0301 µM
ED50 [39]: 0.153 µM
ED50 [40]: 214 µM
ED50 [41]: 14.9 µM
ED50 [42]: 2.63 µM
ED50 [43]: 1530 µM
ED50 [44]: 0.0188 µM
ED50 [45]: 0.0559 µM
ED50 [46]: 0.0137 µM
ED50 [47]: 0.0574 µM

Cc1ccc(C(=O)Nc2cccc(C(F)(F)F)c2)cc1Nc1nc(-c2cccnc2)nc2c1cnn2C
ED50 [1]: 0.00564 µM
ED50 [2]: 1.13 µM
ED50 [3]: 0.836 µM
ED50 [4]: 2.29 µM
ED50 [5]: 0.0527 µM
ED50 [6]: 111 µM
ED50 [7]: 0.613 µM
ED50 [8]: 0.626 µM
ED50 [9]: 0.064 µM
ED50 [10]: 5.78 µM
ED50 [11]: 0.922 µM
ED50 (Homo sapiens [12]): 3.66 µM
ED50 [13]: 0.335 µM
ED50 [14]: 0.00763 µM
ED50 [15]: 0.0564 µM
ED50 [16]: 0.0142 µM
ED50 [17]: 74.6 µM
ED50 [18]: 3.18 µM
ED50 [19]: 0.0117 µM
ED50 [20]: 0.00533 µM
ED50 [21]: 0.0409 µM
ED50 [22]: 3.97 µM
ED50 [23]: 5.81 µM
ED50 [24]: 12900 µM
ED50 [25]: 0.0368 µM
ED50 [26]: 11.2 µM
ED50 [27]: 2.57 µM
ED50 [28]: 0.173 µM
ED50 (Homo sapiens [29]): 0.0833 µM
ED50 [30]: 13.4 µM
ED50 [31]: 21.9 µM
ED50 [32]: 2.05 µM
ED50 [33]: 24.5 µM
ED50 [34]: 4.01 µM
ED50 [35]: 4370 µM
ED50 [36]: 0.000384 µM
ED50 [37]: 11 µM
ED50 (Homo sapiens [38]): 17.4 µM
ED50 [39]: 0.449 µM
ED50 [40]: 2.11 µM
ED50 [41]: 0.00259 µM
ED50 [42]: 0.00259 µM
ED50 [43]: 41.5 µM
ED50 [44]: 4.09 µM
ED50 [45]: 0.00899 µM
ED50 [46]: 0.105 µM
ED50 [47]: 16.5 µM
